In US11534404B2, “Multilayer beads for pharmaceutical use” (Sucampo AG, priority 2016, dated 2022):

Tests used:
Type in all cases: physicochemical
[1] = Lubiprostone-excipient contact stability study (Example 1A); conditions: excipient:lubiprostone approx 50:50; 55° C. 10 days; HPLC
Description: Test samples were prepared for the study in approximately 50:50 proportion using various excipients and lubiprostone drug. These prepared mixtures were then placed on accelerated stress stability conditions at 55° C. for 10 days. After 10 days, these samples were analyzed by a suitable HPLC method to determine assay (the amount of remaining Lubiprostone) and impurities generated due to degradation of lubiprostone.

[2] = Lubiprostone-excipient contact stability study, solid solution (Example 1B); conditions: for % of the initial: 55° C. 10 d, remaining lubiprostone by HPLC
Description: Additional test samples were prepared for the study by admixing various excipients and lubiprostone drug in ratios of about 50:50 and about 99:1. Solid solutions were prepared by mixing lubiprostone/MeCN and Excipient/MeCN, combining these mixtures and then removing the solvent by evaporation. The prepared mixtures were then placed under accelerated stress stability conditions at 55° C. for 10 days. After 10 days, these samples were analyzed by HPLC method to determine the amount of remaining lubiprostone and impurities generated as a result of the degradation of lubiprostone.

[3] = Lubiprostone-excipient contact stability study, mechanical mixing of powder (Example 1C); conditions: for % of the initial: 55° C. 10 d, remaining lubiprostone by HPLC
Description: Test samples were prepared by direct (mechanical) mixing of various excipients and lubiprostone drug in approximately 50:50 and 99:1 ratios. The mechanical mixing of lubiprostone and excipients was conduct by admixing them using a conventional mortar. The prepared mixtures were then placed under accelerated stress stability conditions at 55° C. for 10 days. After 10 days, these samples were analyzed by HPLC to determine the amount of remaining lubiprostone and impurities generated as a result of the degradation of lubiprostone.

[4] = Mechanical mixing of powder 50:50
[5] = Mechanical mixing of powder 99:1

For `CCCCC(F)(F)[C@@]1(O)CC[C@H]2[C@@H](CC(=O)[C@@H]2CCCCCCC(=O)O)O1` [Lubiprostone, (−)-7-[(2R,4aR,5R,7aR)-2-(1,1-difluoropentyl)-2-hydroxy-6-oxooctahydrocyclopenta[b]pyran-5-yl]heptanoic acid], the “Assay (% of initial)” value [1] was 42.3%, the “Total Impurities” value [1] was 59.0% and the “55° C. 10 d Impurities” value ([2]; Solid solution 50:50) was 33.5. For the same compound, the “% of the initial” value ([2]; Solid solution 50:50) was 44.4%, the “55° C. 10 d Impurities” value ([2]; Solid solution 99:1) was 35.5 and the “% of the initial” value ([2]; Solid solution 99:1) was 44.4%. The “55° C. 10 d Impurities” value [3, 4] was 24.5, the “% of the initial” value [3, 4] was 55.6% and the “55° C. 10 d Impurities” value [3, 5] was 24.5. For the same compound, the “% of the initial” value [3, 5] was 55.6%.
